Where “and” joins values, the source holds several entries; their conditions need not be identical. Equal entries are not always repeated.

A short description of the data set: solvent given as SMILES.

`CC(C)[Si](C#Cc1c2nc3ccccc3nc2c(C#C[Si](C(C)C)(C(C)C)C(C)C)c2nc3c(ccc4cc5ccccc5cc43)nc12)(C(C)C)C(C)C` registered an absorption maximum (in CCCCCC) of 638 nm.

Regarding `O=C1c2cccc3c(-n4c5ccccc5c5ccccc54)ccc(c23)C(=O)N1C1CCCCC1`, the absorption maximum reads like this: (in C1CCOC1) 407 nm; (in CCCCCC) 399 nm; (in ClC(Cl)Cl) 402 nm; (in ClCCl) 410 nm.

The compound `COC(=O)/C=C/C=C/C1=[N+]2C(=C(c3c(C)cc(C)cc3C)c3ccc(/C=C/C=C/C(=O)OC)n3[B-]2(F)F)C=C1` gave an absorption maximum (in ClCCl) of 641 nm.

Regarding `Cn1c(=O)nc2n(C)c3ccccc3nc-2c1=O`, the absorption maximum (in CC1CCCO1) came out at 460 nm and the absorption maximum (in CC#N) came to 437 nm.

For the setting “in C1CCCCC1”, `c1ccc(-c2cc3cccc[n+]3[b-]3c(-c4cccc5[b-]4[n+]4ccccc4cc5-c4ccccc4)cccc32)cc1` registered an absorption maximum of 449 nm.

`F[B-]1(F)OC(c2ccc(N3CCCC3)cc2)=Cc2cccc[n+]21`: the absorption maximum (in ClC(Cl)Cl) was determined as 438 nm.

As for `Cn1cccc1-c1ccc(C#N)cc1`, the absorption maximum is, setting by setting: (in C1CCOC1) 326 nm; (in CC#N) 322 nm; (in CCCCCC) 317 nm; (in CCCCOCCCC) 321 nm; (in CCOCC) 321 nm.

Take `CO`: the absorption maximum (in CCCCCC) was 177 nm.

For `COc1ccc2nc3c(nc2c1)c(-c1ccccc1)nn3C`, the absorption maximum runs as follows: (in C1CCCCC1) 431 nm; (in C1CCOC1) 435 nm; (in CC#N) 434 nm.

For the compound `N#Cc1cc(-n2c3ccccc3c3ccccc32)nc(-n2c3ccccc3c3ccccc32)n1`, the absorption maximum (in Cc1ccccc1) amounted to 342 nm.

For the compound `CC[N+]1(CC)CN2C(=N1)C(C(=O)O)=Cc1ccccc12`, the absorption maximum is, setting by setting: (in CN(C)C=O) 361 nm; (in O) 373 nm.

`CC1=C(I)C(C)=[N+]2C1=C(c1c(-c3ccccn3)nc3ccccn13)c1c(C)c(I)c(C)n1[B-]2(F)F` yielded an absorption maximum (in ClCCl) of 554 nm.

As to `COc1ccc(-c2ccc3c(c2)c2cc(-c4ccc(OC)cc4)ccc2n3-c2ccc(C(=O)c3ccc4sc5ccccc5c4c3)nc2)cc1`, the absorption maximum (in Cc1ccccc1) was determined as 390 nm.

Turning to `CN(C)c1ccc(/C=C/C(=C(C#N)C#N)c2ccc3c4c(cccc24)CC3)cc1`, the absorption maximum (in C1CCOC1) was found to be 488 nm; the absorption maximum (in CC#N) was found to be 494 nm; the absorption maximum (in CC(C)=O) is 492 nm; the absorption maximum (in CCOC(C)=O) was 497 nm; the absorption maximum (in CN(C)C=O) came to 505 nm; the absorption maximum (in CO) is on record as 496 nm. Further, the absorption maximum reads like this: (in Cc1ccccc1) 487 nm; (in ClC(Cl)Cl) 483 nm.

Take `CCCCCn1c2ccccc2c(=O)c2ccccc21`: the absorption maximum runs as follows: (in CS(C)=O) 403 nm; (in O) 394 nm.

In the case of `CC1(C)C2=[N+](CCCCCC(=O)NCCNC(=O)CCCCCN3/C(=C/C=C/C=C/C=C/2)C(C)(C)c2cc(S(=O)(=O)[O-])ccc23)c2ccc(S(=O)(=O)[O-])cc21`, the absorption maximum came out at 755 nm (in CO) and 750 nm (in O).

For the compound `CC1=[N+]2C(=C(c3ccc(N4CCOCC4)cc3)c3ccc(C)n3[B-]2(F)F)C=C1`, the absorption maximum (in C1CCCCC1) is listed as 509 nm; the absorption maximum (in C1CCOC1) was 507 nm; the absorption maximum (in CC#N) was 504 nm and 505 nm; the absorption maximum (in CC(=O)C(C)(C)C) was determined as 506 nm; the absorption maximum (in CC(C)=O) is 505 nm; the absorption maximum (in CCCCCC) was 508 nm. For the same compound, the absorption maximum runs as follows: (in CCOC(C)=O) 506 nm; (in CO) 505 nm; (in Cc1ccccc1) 511 nm; (in ClC(Cl)Cl) 511 nm.

`CC(C)[Si]1(C(C)C)c2cc(C=O)ccc2-c2ccc(N(c3ccccc3)c3ccccc3)cc21`: the absorption maximum is reported as 403 nm (in C1CCCCC1); 392 nm (in CC#N); 396 nm (in CCO); 393 nm (in CCOCC); 398 nm (in CS(C)=O); 401 nm (in ClCCl). This compound also came in with an absorption maximum (in c1ccccc1) of 398 nm.

For `COC(=O)/C=C/C=C/C1=CC2=C(c3c(C)cc(C)cc3C)c3cc(/C=C/C=C/C(=O)OC)cn3[B-](F)(F)[N+]2=C1`, the absorption maximum (in ClCCl) was 633 nm.

On to `CCOC(CN1C(=O)C2=C(c3ccsc3)N(CC(OCC)OCC)C(=O)C2=C1c1ccsc1)OCC`, for which the absorption maximum (in ClC(Cl)Cl) worked out at 493 nm.

The compound `COc1ccc(C#Cc2c3ccccc3c(C#Cc3ccc(OC)cc3)c3cc4ccccc4cc23)cc1` came in with an absorption maximum (in ClCCl) of 559 nm.

For `CN(C)c1ccc(C2=[N+]3C(=Nc4c(-c5ccc(OCCCCS(=O)(=O)[O-])cc5)cc(-c5ccc(N(C)C)cc5)n4[B-]3(F)F)C(c3ccc(OCCCCS(=O)(=O)[O-])cc3)=C2)cc1`, under “in CS(C)=O”, the absorption maximum amounted to 786 nm.

`COc1ccc(-c2nc3c(c4c2-c2ccccc2CC4)-c2ccccc2CC3)cc1` gave an absorption maximum (in C1CCOC1) of 322 nm; an absorption maximum (in CC#N) of 321 nm; an absorption maximum (in CCCCCC) of 322 nm; an absorption maximum (in CCOC(C)=O) of 310 nm; an absorption maximum (in CO) of 318 nm; an absorption maximum (in CS(C)=O) of 320 nm. In addition, the absorption maximum reads like this: (in Cc1ccccc1) 320 nm; (in ClCCl) 322 nm.

Where the note is “in ClC(Cl)Cl”, `COc1ccc(-c2oc3cccc4c5c(-c6ccc(OC)cc6)/c(=N/S(=O)(=O)C(F)(F)F)oc6cccc(c2c34)c65)cc1` registered an absorption maximum of 480 nm.

For the setting “in ClC(Cl)Cl”, `COc1ccc2c(c1)SCC1=C(c3ccccc3)C3=Nc4c(-c5ccccc5)c5c(n4[B-](F)(F)[N+]3=C12)-c1ccc(OC)cc1SC5` yielded an absorption maximum of 706 nm.

For `Cn1c(=O)c(-c2ccccc2)nc2ccccc21`, the absorption maximum (in c1ccccc1) is given as 369 nm.

Turning to `O=[N+]([O-])c1ccc([N+]2=Cc3ccc4c5c(ccc4c3O[B-]2(c2c(F)c(F)c(F)c(F)c2F)c2c(F)c(F)c(F)c(F)c2F)C=[N+](c2ccc([N+](=O)[O-])cc2)[B-](c2c(F)c(F)c(F)c(F)c2F)(c2c(F)c(F)c(F)c(F)c2F)O5)cc1`, the absorption maximum (in C1CCOC1) turned out to be 525 nm; the absorption maximum (in CC#N) stood at 513 nm; the absorption maximum (in CC(C)=O) came out at 515 nm; the absorption maximum (in Cc1ccccc1) is reported as 549 nm; the absorption maximum (in ClCCl) was 553 nm.

For the setting “in CCO”, `Cc1c(COC(=O)c2ccccc2Br)n2c(OCC(=O)c3ccccc3Br)c(C)c(=O)n2c1=O` returned an absorption maximum of 382 nm.

Compound `c1cc2ccc3ccc4cc3c2cc1c1ccc2c(c1)c1cc(ccc1[C@]13OCCO[C@]21OCCO3)c1ccc2c(c1)c1cc4ccc1[C@]13OCCO[C@]21OCCO3` gave an absorption maximum (in Cc1ccccc1) of 353 nm.

As for `Cc1ccc(S(=O)(=O)/N=c2\oc3cccc4c5c(-c6ccccc6)oc6cccc(c(c2-c2ccccc2)c34)c65)cc1`, the absorption maximum (in ClC(Cl)Cl) was 445 nm.

`CCCCCOc1cc2oc(=O)c3c4ccc(O)cc4c4ccc5cccc6c(c1)c2c3c4c56`: the absorption maximum (in C1CCOC1) is given as 443 nm.

Take `Cc1ccc2nc3[nH]c(=O)[nH]c(=O)c3nc2c1C`: the absorption maximum (in CC#N) is 388 nm.

In turn, `Cc1cc2c(cc1C)NC(=O)CC(=O)N2` showed an absorption maximum (in CS(C)=O) of 297 nm.

`C[Si](C)(C)C#CC#Cc1ccc2c3cccc4cccc(c5cccc1c52)c43`: where the note is “in C1CCCCC1”, the absorption maximum was 470 nm.

`CCO[B-]1(OCC)n2c(C)cc(C)c2C(c2ccc(I)cc2)=C2C(C)=CC(C)=[N+]21` yielded an absorption maximum (in ClC(Cl)Cl) of 505 nm.

Turning to `COc1ccc(N2c3cc(OC)ccc3N=c3cc4c(cc32)=Nc2cc(C(C)(C)C)cc(C(C)(C)C)c2O4)cc1`, the absorption maximum is on record as 539 nm (in CC#N), 562 nm (in CCCCCC) and 558 nm (in CO).

As for `O=C(c1ccncc1)c1ccc(-n2c3ccccc3c3cc(-n4c5ccccc5c5ccccc54)ccc32)cc1`, the absorption maximum by setting is: (in C1CCOC1) 342.64 nm; (in CCCCCC) 342.64 nm; (in Cc1ccccc1) 362 nm; (in ClCCl) 342.64 nm.

For `N#Cc1nn(-c2cc(F)cc(F)c2)nc1N1CCCC1`, the absorption maximum (in CC#N) is reported as 350 nm.

With `c1ccc(N(c2ccccc2)c2c3ccccc3c(N(c3ccccc3)c3ccccc3)c3ccccc23)cc1`, where the note is “in Cc1ccccc1”, the absorption maximum turned out to be 461 nm.

With `C(=C\c1ccc(-c2cccc3ccccc23)s1)/c1cccs1`, the absorption maximum (in ClCCl) is given as 370 nm.

Regarding `CNC1=C2C=CC=[N+]2[B-](F)(F)n2cccc21`, the absorption maximum by setting is: (in C1CCCCC1) 418.5 nm; (in CC(C)=O) 395.5 nm; (in CCO) 397 nm; (in CCOC(C)=O) 398.5 nm; (in CO) 394.5 nm; (in OCC(F)(F)F) 393 nm.

In the case of `CCN(CC)c1ccc(C2=C3C(C)=CC(/C=C/c4ccc(OCCCN=[N+]=[N-])cc4)=[N+]3[B-](F)(F)n3c(C)cc(C)c32)cc1`, for the setting “in CO”, the absorption maximum stood at 570 nm.

Regarding `COc1ccc(-n2c(-c3ccc(-c4cncc5ccccc45)cc3)nc3c4ccccc4c4ccccc4c32)cc1`, for the setting “in C1CCOC1”, the absorption maximum was 365 nm.

`CC(C)(C)c1ccc2c(c1)c1cc(C(C)(C)C)ccc1n2-c1cccc2c1Oc1c(-c3nc(-c4ccccc4)nc(-c4ccccc4)n3)cccc1C2(C)C`: under “in Cc1ccccc1”, the absorption maximum worked out at 346 nm.

`CCOC(=O)c1c(-c2cc3ccccc3oc2=O)nn(-c2cccc(C)c2)c1C(=O)OCC` came in with an absorption maximum (in ClCCl) of 321 nm.

Turning to `CC(=O)c1cc2c(cc1F)NC(C)(C)CC2=O`, the absorption maximum (in CC#N) worked out at 352 nm.

The compound `CCN(CC)c1ccc(/C=C2\CC/C(=C\c3ccc(N(c4ccc(/C=C5\CC/C(=C\c6ccc(N(CC)CC)cc6)C5=C(C#N)C#N)cc4)c4ccc(/C=C5\CC/C(=C\c6ccc(N(CC)CC)cc6)C5=C(C#N)C#N)cc4)cc3)C2=C(C#N)C#N)cc1` came in with an absorption maximum (in CN(C)C=O) of 590 nm.

As to `COC(=O)c1cc(=O)n(C)c2cc(-c3ccc(N4CCN(C)CC4)cc3)sc12`, the absorption maximum was found to be 418 nm (in CC#N) and 420 nm (in ClCCl).

In turn, `CCOC(=O)c1ccc(C2CC(c3cccc4ccccc34)=NN2c2ccc(F)cc2)cc1` (stereo unspecified) yielded an absorption maximum (in ClCCl) of 375 nm.
